Assay results as given in ChEMBL document CHEMBL5608109, “Hepatotoxicity screening of Donated Chemical Probes” (2024).

System: Hepatocyte spheroids
Experiment: This assay model using primary human hepatocyte (PHH) spheroids, which are cultured in Williams E medium. After spheroid formation, cells are exposed to compounds in an FBS-free culture medium. […] Imaging is performed on an Opera Phenix High-Content Screening System, allowing quantification of proliferation as a readout for evaluating the effects of chemical probes on hepatocyte regeneration.
Assay type: functional
Conditions: read-out: Cell Viability; for viability at 0.1 µM: Concentration 0.1 uM; for viability at 1 µM: Concentration 1 uM; for viability at 10 µM: Concentration 10 uM

| SMILES | viability at 0.1 µM | viability at 1 µM | viability at 10 µM | viability at 2 µM (Concentration 2 uM) | viability at 20 µM (Concentration 20 uM) |
| --- | --- | --- | --- | --- | --- |
| CCCOc1ccc([C@H]2[C@H](C(=O)O)[C@@H](c3ccc4c(c3)OCO4)CN2CC(=O)Nc2c(CC)cccc2CC)cc1 [A-192621] | 104% (non-toxic) | 110% (non-toxic) |  |  |  |
| O=S(=O)(NC1CCC(c2cc(F)ccc2F)(S(=O)(=O)c2ccc(Cl)cc2)CC1)C(F)(F)F (stereo not drawn) [MRK-560] | 101% (non-toxic) | 76.1% (non-toxic) |  |  |  |
| CCOC(=O)c1cc2cc(-c3cc(C(=O)NCc4ccc(C(=O)O)cc4)nn3C)ccc2[nH]1 [BI 4394] | 108% (non-toxic) | 106% (non-toxic) |  |  |  |
| CS(=O)(=O)N1CCCC(NC(=O)[C@H](CCC2CCCCC2)NC(=O)c2ccc(CNC(=O)c3cnc4ccccn34)cc2)C1 (stereo partly drawn) [SR-302] | 134% (non-toxic) | 128% (non-toxic) |  |  |  |
| O=C1c2ccc(Nc3ccc(F)cc3F)cc2CCc2ccc(OC[C@H](O)CO)cc21 [Skepinone-L] |  | 94.6% (non-toxic) | 16.2% (toxic) |  |  |
| Cc1cc2c(-c3ccco3)cnc(N[C@@H]3CCN(C)C[C@H]3C(=O)NC3CCCCC3)c2[nH]c1=O [GSK789] |  | 52.2% (toxic) | 27.6% (toxic) |  |  |
| CCc1ccccc1C(=O)Nc1n[nH]c2c(C)c(F)c(C3C(C#N)=C(C)N(C)C(C)=C3C#N)cc12 [BAY-3827] |  | 110% (non-toxic) | 84.2% (non-toxic) |  |  |
| C[C@@H]1CN(c2cc(-c3n[nH]c4ccc(OC5(C)CC5)cc34)ncn2)C[C@H](C)O1 [MLi-2] | 79.3% (non-toxic) | 79.7% (non-toxic) |  |  |  |
| Cn1cncc1[C@](O)(COc1ccc(C#N)cc1-c1ccc(OC(F)(F)F)cc1)c1ccc(C#N)cc1 |  | 112% (non-toxic) | 113% (non-toxic) |  |  |
| CS(=O)(=O)c1cc(C2(NC(=O)c3cncc4c3cnn4-c3ccc(F)cc3)CC2)ccn1 [BI 639667] |  |  |  | 60.2% (toxic) | 59.6% (toxic) |
| CN1CCN(C(=O)C(C)(C)c2ccc(C(=O)Nc3cn4cc(-c5ccncc5)ccc4n3)cc2)CC1 [T3-CLK] |  | 109% (non-toxic) | 1.01% (toxic) |  |  |
| CN1C(=O)[C@@H](N2CCc3c(nn(Cc4ccccc4)c3Br)C2=O)COc2ccccc21 [TP-030-2] | 69.5% (toxic) | 56.7% (toxic) |  |  |  |
| CCOc1ccc(S(=O)(=O)Nc2ccc(Cl)cc2C#Cc2cnc(C(=O)O)cc2OC)c2ncccc12 |  | 91.1% (non-toxic) | 17.2% (toxic) |  |  |
| O=c1nc(-c2ccccn2)sc2ccccc12 [BTZO-1] |  | 99.7% (non-toxic) | 73.5% (non-toxic) |  |  |
| Cc1ccc2nc(CNCCCOc3ccccc3)cc(O)c2c1 [UCSF924] |  | 164% (non-toxic) | 147% (non-toxic) |  |  |
| O=C(NC[C@@H]1[C@H]2CN(C(=O)OCc3cc(C(F)(F)F)cc(C(F)(F)F)c3)C[C@@H]12)c1ccc2[nH]nnc2c1 [BI 2545] |  | 119% (non-toxic) | 76.5% (non-toxic) |  |  |
| CCOCCn1cc(C(=O)Nc2ccc(-n3nc(-c4cccnc4)cc3C(F)(F)F)cn2)ccc1=O [BI 1935] |  | 100% (non-toxic) | 34.7% (toxic) |  |  |
| Clc1cccc(-c2nnnn2Cc2cccnc2)c1Cl |  | 97.1% (non-toxic) | 98.7% (non-toxic) |  |  |
| COc1cc(-c2cn([C@H]3CCc4c(F)cccc4N(CC(F)(F)F)C3=O)nn2)ccc1-n1cnc(C)c1 |  | 115% (non-toxic) | 126% (non-toxic) |  |  |
| COCc1nc2cnc3cc(-c4c(C)noc4C)c(OC[C@H]4CCNC4)cc3c2n1[C@H](C)c1ccccc1 [GSK778] |  | 118% (non-toxic) | 64% (toxic) |  |  |

| SMILES | viability at 0.1 µM | viability at 1 µM | viability at 10 µM | viability at 2 µM (Concentration 2 uM) | viability at 20 µM (Concentration 20 uM) |
| --- | --- | --- | --- | --- | --- |
| CCNC(=O)c1cc2c(N3CCOCC3C)ccnc2[nH]1 (stereo not drawn) |  | 90.1% (non-toxic) | 74.9% (non-toxic) |  |  |
| Cc1nc(N2CC[C@H](O)C2)ncc1-c1cc(C(F)(F)F)cc2[nH]ncc12 |  | 116% (non-toxic) | 107% (non-toxic) |  |  |
| c1ccc(N2CCN(Cc3nc4ccccc4[nH]3)CC2)nc1 |  | 117% (non-toxic) | 110% (non-toxic) |  |  |
| O=C(O)c1cc(-c2ccc(C3CCNCC3)cc2)c2ccc(-c3ccc(C(F)(F)F)cc3)cc2c1 |  | 91.3% (non-toxic) | 1.07% (toxic) |  |  |
| O=C(Nc1cnc(Oc2ccc(F)cc2)nc1)N1CCc2ncccc2[C@@H]1c1ccc(F)cc1 [BAY-899] |  | 92.3% (non-toxic) | 106% (non-toxic) |  |  |
| Cc1cc(C)c(-n2ccn3nc(-c4cccnc4)cc23)cc1NC(=O)c1cc(C#N)cc(S(F)(F)(F)(F)F)c1 [BAY-826] | 149% (non-toxic) | 144% (non-toxic) |  |  |  |
| CNC(=O)c1cc(C(=O)NC2CC2)cn(Cc2ccccc2)c1=O [GSK620] |  | 117% (non-toxic) | 85.9% (non-toxic) |  |  |
| COCCc1ccc(-c2c(C)nc3c(N4CCOCC4)ccnn23)cn1 [JNJ-42396302] |  | 158% (non-toxic) | 160% (non-toxic) |  |  |
| CN(C)[C@@H]1CCN(c2cc(-c3ccccc3)nc3ccnn23)C1 [(R)-ZINC-3573] |  | 111% (non-toxic) | 95.8% (non-toxic) |  |  |
| Cc1c(NC(=O)c2cc(C(N)=O)nc3cc(F)ccc23)c(C(F)(F)F)nn1Cc1ccc(C#N)cc1 [BAY-876] |  | 91.5% (non-toxic) | 21.4% (toxic) |  |  |
| O[C@]1(C(F)(F)F)CCCC[C@H]1Nc1ccc(F)cc1 [BAY-390] | 99.2% (non-toxic) | 96.9% (non-toxic) |  |  |  |
| CC1=CC(C)=[N+]2C1=C(CCCCc1cn(CC(=O)N3CCc4nc(NC(=O)[C@H]5CCN(C#N)C5)sc4C3)nn1)c1c(C)cc(C)n1[B-]2(F)F |  | 104% (non-toxic) | 105% (non-toxic) |  |  |
| CC(=O)C1=C(C)N(c2cccc(C(F)(F)F)c2)C(=O)N[C@@H]1c1ccc(C#N)nc1 [BAY-678] |  | 139% (non-toxic) | 132% (non-toxic) |  |  |
| COc1nc2ccc([C@@](O)(c3ccccc3)C3CCN(C(C)=O)CC3)cc2c(Cl)c1Cc1ccc(-n2cccn2)cc1 [JNJ-54119936] |  | 116% (non-toxic) | 114% (non-toxic) |  |  |
| Cc1c[nH]c2nccc(Oc3c(F)cc(Nc4cc(Cl)nc(N)n4)cc3F)c12 [BAY-549] | 79.9% (non-toxic) | 83.7% (non-toxic) |  |  |  |
| C=CC(=O)Nc1ccc2[nH]c(=O)n(C3CCN(Cc4ccc(-c5nc6cc[nH]c(=O)c6cc5-c5ccccc5)cc4)CC3)c2c1 [Borussertib] |  | 48.8% (toxic) | 16% (toxic) |  |  |
| CC(=O)Nc1ncc(CN2CCC[C@H](Cc3cc(C)nc(C)c3)C2)s1 [JNJ-65355394] |  | 149% (non-toxic) | 142% (non-toxic) |  |  |
| Cc1cc(-n2nc(Cc3cc(F)cc(C(F)(F)F)c3)nc2C)ccc1C(N)=O [TP-024] |  | 111% (non-toxic) | 92% (non-toxic) |  |  |
| Cn1nc(C(F)(F)F)cc1-c1cnc(N2CCc3cc(S(=O)(=O)Nc4c(F)cc(Cl)cc4F)cc(N4CCCC4=O)c32)nc1 [TP-020] |  | 121% (non-toxic) | 120% (non-toxic) |  |  |
